“Also recorded” adds a separate entry of the source.
Assays:
[1] = tested on: Prkg1^RQ/+ mice; assay: Aging study: cobinamide in drinking water, Prkg1^RQ/+ mice; format: in vivo
[2] = biological target: T1, PKG1^RQ (Homo sapiens, UniProt Q13976, R177Q); assay: Kinase activity of purified PKG1^RQ; format: biochemical; conditions: purified enzyme
T1 construct: FLAG (N); made in house; host or cells: transiently transfected 293T cells (ATCC, CRL3216)
T1 sequence (Q13976 1-671 R177Q): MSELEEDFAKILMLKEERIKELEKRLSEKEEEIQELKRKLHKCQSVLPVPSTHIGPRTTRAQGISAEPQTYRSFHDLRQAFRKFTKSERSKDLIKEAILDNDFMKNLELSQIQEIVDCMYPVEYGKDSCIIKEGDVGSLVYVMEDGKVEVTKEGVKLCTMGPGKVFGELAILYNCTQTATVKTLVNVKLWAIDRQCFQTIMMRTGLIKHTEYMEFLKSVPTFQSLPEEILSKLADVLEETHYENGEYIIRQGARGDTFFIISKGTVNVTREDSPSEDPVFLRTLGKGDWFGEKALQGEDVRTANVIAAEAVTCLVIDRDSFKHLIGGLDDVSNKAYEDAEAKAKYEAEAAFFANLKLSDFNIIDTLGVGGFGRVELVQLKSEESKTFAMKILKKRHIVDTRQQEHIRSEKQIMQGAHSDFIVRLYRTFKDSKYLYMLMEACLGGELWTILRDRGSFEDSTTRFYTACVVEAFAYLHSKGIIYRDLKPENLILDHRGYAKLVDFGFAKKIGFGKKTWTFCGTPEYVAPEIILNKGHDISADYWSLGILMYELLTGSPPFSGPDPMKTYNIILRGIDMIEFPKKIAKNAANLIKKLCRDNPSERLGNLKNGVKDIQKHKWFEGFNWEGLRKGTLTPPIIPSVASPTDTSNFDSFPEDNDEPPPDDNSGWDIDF
Method: PKG1 Purification and Activity Assays. Wild type and mutant PKG1^RQ were expressed with N-terminal FLAG epitope tags in transiently-transfected 293T cells (ATCC, CRL3216), purified with anti-FLAG beads and eluted with FLAG peptide, and kinase activity assays were performed.^41 Kinase activity in SMC and aortic extracts was measured using an optimized peptide in the presence of 1.25 μM protein kinase inhibitor peptide (PKI) to inhibit cAMP-dependent protein kinase.^65 Assays were performed with [γ-^32PO4]ATP (1.3 Ci/mmol; 50 μM) in the presence and absence of 3 μM cGMP, and were linear with time and protein concentration. In some assays, the PKG-specific inhibitory peptide DT2 was included at 10 μM.

[3] = tested on: Prkg1^RQ/+ mice; assay: Aortic gene expression by quantitative RT-PCR after Cbi treatment; format: in vivo; conditions: 12 month-old Prkg1^RQ/+ mice, 1 mM Cbi in drinking water for 1 month
Method: (§1) Randomization and Drug Treatment of Mice. At the time of weaning, male and female litter mates were separated and randomly assigned to new cages. At the age of 6 months (aging studies) or 10-14 weeks (TAC studies), matched cages containing mice born within a three week period were randomly assigned to treatment versus vehicle groups. For aging studies, some mice received 1 mM trihistidyl-cobinamine (Cbi) in the drinking water, starting from the age of 6 months until 12 months. For gene expression studies, mice were treated with 1 mM Cbi for one month only, from 11-12 months of age. For TAC studies, some mice received 1 mg/ml N-acetylcysteine (NAC) in the drinking water starting 4 weeks before until 2 weeks after the surgery. The drugs were dissolved freshly each week and filter-sterilized; fluid intake was monitored weekly. The Cbi dose was calculated to be 50 mg/kg/d, and the NAC dose was 500 mg/kg/d. Aquohydroxyl-cobinamide was synthesized from cobalamine by removal of the 5,6-dimethyl-benzimidazol ring; trihistidyl-cobinamide was obtained by adding three molar equivalents of L-histidine to the aquohydroxyl cobinamide.^63 Purity of the drug was >95% by high-pressure liquid chromatography.
Quantitative RT-PCR. Aortas were dissected and snap-frozen as described above; they were pulverized and immersed in Trizol (Molecular Res. Center, TR118). Total RNA was isolated, reverse-transcribed using iScript cDNA synthesis kit (Bio-Rad), and PCR was performed using a MX3005P real-time PCR detection system with Brilliant II SYBR Green Mix (Agilent Technologies) as described.^67 All primers were intron-spanning (except for 18S rRNA), and were tested with serial cDNA dilutions. Relative changes in mRNA expression were analyzed using the comparative 2^−ΔΔCt method, with 18S rRNA and phosphoglycerate kinase-1 serving as internal controls.^68

[4] = tested on: wild type mice; assay: Cobinamide treatment: effects and toxicity in mice; format: in vivo
Method: as §1

[5] = tested on: human aortic SMCs; assay: Western blots (VASP phosphorylation, JNK activation) and OxyBlot protein oxidation in human SMCs; format: cell-based
Method: Western Blotting. Following anesthesia with ketamine (100 mg/kg) and xylazine (10 mg/kg) by intraperitoneal injection, mice were exsanguinated and perfused with ice-cold phosphate-buffered saline (PBS) containing protease inhibitor cocktail (Calbiochem #539131). Aortas were excised, cleaned from surrounding tissue, and snap-frozen in liquid nitrogen within 15 min of euthanasia. Frozen aortas were pulverized and sonicated (3×10 sec) in ice-cold RIPA buffer (50 mM NaCl, 50 mM Tris-HCl, pH 8, 1% NP-40, 0.1% SDS, 0.5% sodium deoxycholate) supplemented with 1 mM NaF, 1 mM β-glycerolphosphate, and protease inhibitor cocktail. Western blots were developed with primary antibodies specific for PKG1 (1:1000, Cell Signaling Technology; 3248, […] (1:1000, Cell Signaling Technology; 3114), GAPDH (1:1000, Cell Signaling Technology; 2118), β-actin (1:5000, Santa Cruz Biotechnology; 47778), and JNK-phospho-Thr^183/Tyr^185 (1:1000, Cell Signaling Technology; 9251). Blots were developed and visualized with enhanced chemiluminescence using LI-COR Odyssey (with ImageStudio, V5) or with film in the linear range of exposure (with densitometry scanning using ImageJ (V1.51). Protein carbonyl groups (aldehydes and ketones) were detected using the OxyBlot™ Protein Oxidation Detection Kit (Millipore EMD; S7150). Unprocessed scans of blots are provided in the Source Data file.
SMC Culture and Adenovirus Infection. Murine aortic SMCs were isolated from the aortas of 8-12 week old wild type and PKG1^RQ/+ mice and were cultured in Smooth Muscle Basal Media (SmBM) containing 20% FBS, pyruvate, HEPES, L-glutamine, penicillin/streptomycin and growth factors (SmBM Bullet kit; CC-4149 from Lonza), as previously described.^69 Two independent cell isolates from wild type and PKG1^RQ mice were used at passage one. Human primary aortic SMCs were purchased from Lifeline Cell Technology (Frederick, MD, FC-0015) and cultured in VascuLife Basal Medium supplemented with recombinant epidermal growth factor, insulin, and fibroblast growth factor-b, ascorbic acid, L-glutamine, 20% FBS, gentamycin, and amphotericin (Vasculife SMC LifeFactors kit; LS-1040 from Lifeline Technologies). Human SMCs were used at passages 3-6. Adenovirus was generated using the ViraPower Adenoviral Expression System (Thermo Fisher).^67 Human SMCs were infected with virus expressing wild type or mutant human PKG1α (containing the R177Q mutation); the MOI was 3-10 and titrated to produce wild type and mutant kinase at 2-3 fold the level of endogenous PKG1 at 72 h post infection. […] For knock-down of NOX2 and NOX4, SMCs were infected with adenovirus expressing shNOX2 or shNOX4 oligomers (downstream of the U6 promoter) at an MOI of 100; H2O2 production and NADPH oxidase activity assays were performed 48 h later (as described below).

[6] = Prkg1^RQ/+ mice, 1 mM Cbi in drinking water from age 6 to 12 months

With trihistidyl-cobinamide [Cbi] the “PKG activity in aortic extracts after treatment of the mice” value ([1]; Cbi-treated mice) was “nor did Cbi treatment of the mice affect PKG activity”, the “prevention of age-related aortic pathology, including aortic dilation” value ([1]; Prkg1^RQ/+ mice) was “highly effective” and the “SMC apoptosis in aortas” value [1, 6] was “reduced oxidative stress markers and SMC apoptosis in aortas of Prkg1^RQ/+ mice to values in WT mice”. For the same substance, the SMC loss [1, 6] was “completely prevented”, the elastin fiber breaks [1, 6] was “reduced elastin fiber breaks and media collagen content to levels in WT mice” and the media collagen content [1, 6] was “reduced elastin fiber breaks and media collagen content to levels in WT mice”. The “oxidative stress markers in aortas” value [1, 6] was “reduced oxidative stress markers and SMC apoptosis in aortas of Prkg1^RQ/+ mice to values in WT mice; also recorded: reduced oxidative stress markers in the aorta”, the aortic dilation ([1]; Prkg1^RQ/+ mice, 1 mM Cbi in drinking water from age 6 to 12 months, ultrasound) was “completely prevented” and the “amount of Cys^43-oxidized, cross-linked PKG1 dimer in aortas” value ([1]; wild type and Prkg1^RQ/+ mice) was “no effect”. For the same substance, the “activity of purified PKG1^RQ” value [2] was “no effect”, the “Ctgf mRNA in aortas” value [3] was “reduced all five transcripts” and the “Hif1a mRNA in aortas” value [3] was “reaching levels similar to those observed in wild type mice”. For the same substance, the “Nox4 mRNA in aortas” value [3] was “reduced all five transcripts”, the “Tgfb1 mRNA in aortas” value [3] was “reduced all five transcripts” and the “Vegfa mRNA in aortas” value [3] was “reaching levels similar to those observed in wild type mice”. For the same substance, the serum homocysteine concentration ([4]; Cbi-treated mice) was “normal”, the “serum methylmalonic acid concentration” value ([4]; Cbi-treated mice) was “normal” and the “vitamin B12-dependent functions” value ([4]; Cbi-treated mice) was “did not affect”. The toxicity ([4]; judged by normal weight, clinical appearance, blood counts, and liver and kidney function tests) was “no discernible toxicity”, the “effects in wild type mice” value ([4]; wild type mice, Cbi in drinking water) was “no significant effects” and the “H2O2-induced JNK activation” value ([5]; human SMCs) was “decreased”. For the same substance, the H2O2-induced protein oxidation ([5]; human SMCs) was “decreased” and the “protein oxidation in PKG1^RQ-expressing cells” value ([5]; human SMCs expressing PKG1^RQ) was “reduced protein oxidation”.

From patent US12409181B2, “Treatment for aortic aneurysms” (THE REGENTS OF THE UNIVERSITY OF CALIFORNIA, priority 2019, dated 2025)
